Experimental data from publication PMC11003478, “Spiro heterocycles bearing piperidine moiety as potential scaffold for antileishmanial activity: synthesis, biological evaluation, and in silico studies” (Journal of Enzyme Inhibition and Medicinal Chemistry, 2022).
Values joined by “and” are separate entries in the source; they are usually repeats but may differ in a detail not shown here. Equal values may be shown once. Read-outs that look alike come from different tables or passages of the source.

How the values were obtained:
promastigote = test system: promastigote; set-up: method as in PMID 27503653; details: read-out: Anti-promastigote EC50; cited from earlier work
amastigote = test system: amastigote; set-up: method as in PMID 27503653; details: read-out: Anti-amastigote EC50; cited from earlier work
[1] = test system: bisubunit DNA topoisomerase IB of L. donovani; set-up: method as in PMID 27503653; details: cited from earlier work
Leishmania = test system: Leishmania; set-up: method as in PMID 34311084; details: cited from earlier work
[2] = test system: L. major promastigote form; assay: In vitro antileishmanial activity, promastigote form; format: cell-based, Leishmania major; details: read-out: Antipromastigotes IC50, µM ± SD
Description: All synthesised compounds were evaluated against L. major promastigote form.
(§1) We used both promastigote and amastigote forms of L. major strain for the in vitro evaluation. All experimental steps were carried out as reported earlier[35]^,[36]. The value of the compound concentration causing 50% inhibition (IC50) was calculated. The software employed is Graph Pad Prism 6 software (GraphPad Software, San Diego, CA, USA).

[3] = test system: L. major axenic amastigote form; assay: In vitro antileishmanial activity, axenic amastigote form; format: cell-based, Leishmania major
Description: as §1

[4] = test system: L. major promastigote (folate pathway, DHFR and PTR1); assay: Reversal of antileishmanial activity by folic acid and folinic acid (folate pathway inhibition); format: cell-based, Leishmania major; details: for Percentage survival, Folic acid 100 µM / Percentage survival, No Cpd added: test compound above its IC50 (trimethoprim 100 µM); for Percentage survival, No Cpd added: no folic or folinic acid; for Percentage survival, Folic acid 20µM: test compound above its IC50, folic acid 20µM; for Percentage survival, Folinic acid 20 µM: test compound above its IC50, folinic acid 20 µM; for Percentage survival, Folinic acid 100 µM: test compound above its IC50, folinic acid 100 µM
Description: It is worthy to mention that folic acid competes for the active sites of both DHFR and PTR1 while folinic acid involves in DNA synthesis without any necessity to undergo activation.
This experiment was performed on the in vitro growth assay for the promastigote and based on the previously published methodology. All experimental steps were performed as reported earlier.

[5] = In vitro cytotoxicity testing on VERO cells; details: African green monkey
VERO cells = assay: In vitro cytotoxicity testing on VERO cells; details: for SI (selectivity index; SI = CC50/IC50): CC50 VERO cells / antileishmanial IC50; for CC50 (VERO cells) higher than IC50 (promastigotes): VERO cells versus promastigotes of leishmania parasite
[6] = Leishmania major, L. major promastigote, 50% growth inhibition
[7] = Leishmania major, L. major axenic amastigote, 50% growth inhibition, read-out: Antiamastigote IC50, µM ± SD
[8] = Leishmania major, read-out: Antiamastigote IC50, µM ± SD, L. major axenic amastigote, 50% growth inhibition
[9] = VERO cells (African green monkey kidney cells)

COC(=O)C1CC2CCCN2C12C(=O)N(Cc1ccccc1)c1ccccc12 (stereo not drawn) [B]
EC50 (promastigote): 1.24 to 1.41 µM | EC50 (amastigote): 0.53 to 0.9 µM | inhibition of bisubunit DNA topoisomerase IB [1]: catalytic inhibitor

CN(C)c1ccc(/C=N/N2C(=O)C(C#N)=CC23c2ccccc2Nc2ccccc23)cc1 [C]
Antileishmanial EC50 (Leishmania): 0.97 µg/mL

O=C1NCC2(CC(c3ccccc3)N(Cc3ccccc3)C(c3ccccc3)C2)N1c1ccccc1 (stereo not drawn) [Compound 5a, 8-Benzyl-1,7,9-triphenyl-1,3,8-triazaspiro[4.5]decan-2-one]
IC50 [2, 6]: 5.4 ± 0.24 µM | IC50 [3, 7]: 5.45 ± 0.22 µM | melting point: 128 to 130 °C

O=C1CNCC2(CC(c3ccccc3)N(Cc3ccccc3)C(c3ccccc3)C2)N1c1ccccc1 (stereo not drawn) [Compound 6a, 9-Benzyl-1,8,10-triphenyl-1,4,9-triazaspiro[5.5]undecan-2-one]
IC50 ([2]; Leishmania major): 4.42 ± 0.22 µM | IC50 [3, 8]: 4.67 ± 0.16 µM | melting point: 150 to 153 °C

N#CC1=C(N)N(c2ccccc2)C2(CNC1c1ccccc1)CC(c1ccccc1)N(Cc1ccccc1)C(c1ccccc1)C2 (stereo not drawn) [Compound 7a, 8-Amino-3-benzyl-2,4,7,10-tetraphenyl-3,7,11-triazaspiro[5.6]dodec-8-ene-9-carbonitrile]
melting point: > 300 °C

O=C1NC(=O)C2(CC(c3ccccc3)N(Cc3ccccc3)C(c3ccccc3)C2)N1c1ccccc1 (stereo not drawn) [Compound 8a, 8-Benzyl-1,7,9-triphenyl-1,3,8-triazaspiro[4.5]decane-2,4-dione]
IC50 [2, 6]: 1.12 ± 0.12 µM | IC50 ([3]; Leishmania major, IC50 used for the selectivity index in Table 4, read-out: Antileishmanial IC50): 0.895 µM | IC50 [3, 7]: 0.89 µM | Percentage survival, Folic acid 100 µM [4]: 81% | Percentage survival, No Cpd added [4]: 20% | Percentage survival, Folic acid 20µM [4]: 72% | Percentage survival, Folinic acid 20 µM [4]: 76% | Percentage survival, Folinic acid 100 µM [4]: 87% | melting point: 188 to 190 °C | CC50 at 72 h [5, 9]: 62.5 µg/mL and 128 µM | SI (selectivity index; SI = CC50/IC50) (VERO cells): 143.38 | CC50 (VERO cells) higher than IC50 (promastigotes) (VERO cells): at least 2 orders of magnitude

O=C1CNC(=O)C2(CC(c3ccccc3)N(Cc3ccccc3)C(c3ccccc3)C2)N1c1ccccc1 (stereo not drawn) [Compound 9a, 9-Benzyl-1,8,10-triphenyl-1,4,9-triazaspiro[5.5]undecane-2,5-dione]
IC50 ([2]; Leishmania major): 0.41 ± 0.04 µM | IC50 [3, 8]: 0.5 µM | IC50 ([3]; Leishmania major, read-out: Antileishmanial IC50 µM, IC50 used for the selectivity index in Table 4): 0.501 µM | IC50 ([3]; read-out: Antiamastigote IC50, µM ± SD, L. major axenic amastigote, 50% growth inhibition): 0.501 ± 0.16 µM | Percentage survival, Folic acid 100 µM [4]: 84% | Percentage survival, No Cpd added [4]: 26% | Percentage survival, Folic acid 20µM [4]: 76% | Percentage survival, Folinic acid 20 µM [4]: 80% | Percentage survival, Folinic acid 100 µM [4]: 92% | melting point: 201 to 203 °C | CC50 at 72 h [5]: 125 µg/mL and 249 µM | SI (selectivity index; SI = CC50/IC50) (VERO cells): 497.37 | CC50 (VERO cells) higher than IC50 (promastigotes) (VERO cells): at least 2 orders of magnitude

N=C1N(c2ccccc2)C(=O)N(c2ccccc2)C12CC(c1ccccc1)N(Cc1ccccc1)C(c1ccccc1)C2 (stereo not drawn) [Compound 11a, 8-Benzyl-4-imino-1,3,7,9-tetraphenyl-1,3,8-triazaspiro[4.5]decan-2-one]
IC50 [2, 6]: 2.44 ± 0.22 µM | IC50 [3, 7]: 4.87 ± 0.32 µM | melting point: 180 to 183 °C

N=C1N(c2ccccc2)C(=S)N(c2ccccc2)C12CC(c1ccccc1)N(Cc1ccccc1)C(c1ccccc1)C2 (stereo not drawn) [Compound 11b, 8-Benzyl-4-imino-1,3,7,9-tetraphenyl-1,3,8-triazaspiro[4.5]decane-2-thione]
IC50 [2, 6]: 3.27 ± 0.32 µM | IC50 [3, 7]: 4.89 ± 0.34 µM | melting point: 168 to 170 °C

N=C1NNC2(CC(c3ccccc3)N(Cc3ccccc3)C(c3ccccc3)C2)S1 (stereo not drawn) [Compound 12, 8-Benzyl-7,9-diphenyl-4-thia-1,2,8-triazaspiro[4.5]decan-3-imine]
IC50 [2, 6]: 2.21 ± 0.22 µM | IC50 [3, 7]: 3.43 ± 0.14 µM

c1ccc(CN2C(c3ccccc3)CC3(CC2c2ccccc2)NCCN3)cc1 (stereo not drawn) [Compound 13, 8-Benzyl-7,9-diphenyl-1,4,8-triazaspiro[4.5]decane]
IC50 [2, 6]: 1.34 ± 0.14 µM | IC50 [3, 7]: 3.24 ± 0.22 µM | melting point: 209 to 211 °C

CCCCCCCCCCCCCCCCOP(=O)([O-])OCC[N+](C)(C)C [Miltefosine, reference compound]
IC50 ([2]; L. major promastigote, 50% growth inhibition): 7.9 ± 0.28 µM | IC50 [2, 6]: 7.89 µM | IC50 [3, 7]: 8.08 ± 0.24 µM | CC50 at 72 h [5, 9]: 99.7 µM | SI (selectivity index; SI = CC50/IC50) (VERO cells): 12.6

COc1cc(Cc2cnc(N)nc2N)cc(OC)c1OC [Trimethoprim, reference compound]
Percentage survival, Folic acid 100 µM [4]: 99% | Percentage survival, No Cpd added [4]: 72%
